According to ChEMBL document CHEMBL3779835, “Identification of an Inhibitor of the Aminoglycoside 6'-N-Acetyltransferase type Ib [AAC(6')-Ib] by Glide Molecular Docking” (Medchemcomm, 2016):
Activity calls are given as the source filed them. The rule behind the calls is not given here.

How the values were obtained:
Acinetobacter baumannii [1] = assay: Inhibition of AAC(6')-1b in amikacin-resistant Acinetobacter baumannii A155 harboring AAC(6')-1b assessed as growth inhibition at 100 uM in presence of 6 ug/ml amikacin
[2] = Inhibition of AAC(6')-1b (unknown origin) expressed in Escherichia coli TOP10 assessed as reduction in acetylation of amikacin in presence of acetyl CoA by DTNB based microplate reader analysis
[3] = Inhibition of AAC(6')-1b (unknown origin) expressed in Escherichia coli TOP10 assessed as reduction in acetylation of kanamycin A in presence of acetyl CoA by DTNB based microplate reader analysis
Klebsiella pneumoniae = assay: Inhibition of AAC(6')-1b in amikacin-resistant Klebsiella pneumoniae harboring AAC(6')-1b assessed as growth inhibition in presence of amikacin
Acinetobacter baumannii [4] = assay: Inhibition of AAC(6')-1b in amikacin-resistant Acinetobacter baumannii A155 harboring AAC(6')-1b assessed as growth inhibition at 50 uM in presence of 8 ug/ml amikacin
[5] = Uncompetitive inhibition of AAC(6')-1b (unknown origin) expressed in Escherichia coli TOP10 assessed as reduction in acetylation of kanamycin A in presence of varying acetyl CoA by DTNB based microplate reader analysis
[6] = Mixed-noncompetitive inhibition of AAC(6')-1b (unknown origin) expressed in Escherichia coli TOP10 assessed as reduction in acetylation of kanamycin A in presence of varying kanamycin A and in presence of fixed acetyl CoA level by DTNB based microplate reader analysis

NCCc1cccc(CN2CCC(O)(CN3CCCCC3)C2)c1 (racemic)
inhibition (Acinetobacter baumannii [1]): Active | IC50 [2]: 34.9 µM | IC50 [3]: 39.7 µM | growth inhibition (GI) (Klebsiella pneumoniae): inactive | inhibition (Acinetobacter baumannii [4]): Active | inhibition [5]: Active | inhibition [6]: Active
